# Measured values taken from US20220241208A1, “PHARMACEUTICAL COMPOSITIONS FOR THE TREATMENT OF HBV” (priority 2019, published 2022).
# Assays:
# HBV [1] = assay: Study 211: open-label extension study of Compound 1 + Nrtl combination therapy; design: species or system human; conditions: in vivo
# Excerpt: Compound 1 was investigated in an open-label, extension study (Study 211) to evaluate the safety and efficacy of combination therapy and Compound 1's effect on sustained viral response biomarkers. […] Study 211 utilized the four assays described in Studies 201 and 202.
# Participants with chronic HBV who were currently not being treated received Compound 1 along with SOC NUC (entecavir [ETV]) tablets orally for 24 weeks. Eligible participants entered a separate extension study after Week 24 to continue open-label Compound 1 for up to an additional year.
# [2] = SGF/FaSSIF two-stage gastric transfer non-sink dissolution test; format: physicochemical; conditions: dosed dry (SDD dry powder or API), 30 min SGF, then FaSSIF pH 6.8
# Protocol: In-vitro drug dissolution performance for each SDD prepared in Example 1 and described in Table 1 (i.e., Formulations 1-4) was evaluated by a two-stage gastric transfer non-sink dissolution test, which stimulates pH and bile salt concentrations for both gastric and intestinal exposure. A drug product sample start in 0.1N HCl(aq) (simulated gastric fluid or SGF) for 30 minutes at which point an equal volume of concentrated fasted-state simulated intestinal fluid (FaSSIF) is added to the SGF, resulting in a final pH of 6.8 in FaSSIF (100 mM PBS, 2.24 mg/mL SIF, Biorelevant Inc.).
# The dissolution performance of the SDDs of Formulations 1-4 and crystalline Compound 1 was tested. The dissolution test is used to measure the supersaturation of drug above the bulk crystalline Compound 1 solubility in biorelevant intestinal media (FaSSIF) after 30 minutes exposure to a low-pH environment (SGF). During the test, samples were transferred from SGF [theoretical Cmax=1000 μA/mL] to FaSSIF SGF [theoretical Cmax=500 μA/mL].
# The dissolution performance of the jet-milled material and crystalline Compound 1 was tested in a non-sink dissolution test, to measure the supersaturation of the drug above the bulk crystalline Compound 1 solubility in biorelevant intestinal media (FaSSIF) after 30 minutes exposure to a low-pH environment (SGF). During the test, samples were transferred from SGF to FaSSIF SGF. […]
# HBV [3] = assay: Study 202: Compound 1+ETV vs placebo+ETV in treatment-naive HBeAg positive viremic chronic hepatitis B subjects; format: in vivo, human; conditions: Tx naïve HBeAg+ subjects
# Protocol: In this study (also referred to as study 202), 25 treatment-naive HBeAg positive […] subjects are randomized 1:1 (Group 1: […] FIG. 1 depicts a flow chart of the study. […] Subjects (Group 2) with chronic HBV who are currently not being treated receive matching placebo along with SOC NUC (entecavir [ETV]) tablets orally for 24 weeks. Subjects receive SOC NUC (0.5 mg QD of ETV) orally as per approved package insert and matching QD placebo tablets orally. […] Subjects return to the clinic at weeks (wk) 2 and 4 and then monthly up to wk 24. Clinical labs, safety and PK are monitored, as well as HBV biomarkers including HBV DNA, HBV RNA, HBsAg and HBeAg. At weeks 12 and 24, longitudinal serum samples are assayed for detectable virus. Compound 1 is abbreviated as C1 in the tables and figures.
# [4] = listed as Crystalline Compound 1
structure (smiles),measurement,setting,value
"O=C(NCc1cnc(C(F)(F)F)s1)c1ccc2c(c1)NC(=O)c1ccccc1S2(=O)=O [Compound 1, 11-oxo-N-((2-(trifluoromethyl)thiazol-5-yl)methyl)-10,11-dihydrodibenzo[b,f][1,4]thiazepine-8-carboxamide 5,5-dioxide]",effect on pgRNA levels,HBV [1],multi-log reduction in pgRNA levels
"O=C(NCc1cnc(C(F)(F)F)s1)c1ccc2c(c1)NC(=O)c1ccccc1S2(=O)=O [Compound 1-Jet Mill, 11-oxo-N-((2-(trifluoromethyl)thiazol-5-yl)methyl)-10,11-dihydrodibenzo[b,f][1,4]thiazepine-8-carboxamide 5,5-dioxide]",AUC35-210FaSSIF (area under the curve after transfer to FaSSIF from 35 to 210 minutes),[2],5400 min * μgA/mL
same,C210 (drug concentration at 180 minutes after transfer to FaSSIF),[2],29.6 μgA/mL
same,Cmax FaSSIF (maximum drug concentration after transfer to FaSSIF),[2],38.0 μgA/mL
"O=C(NCc1cnc(C(F)(F)F)s1)c1ccc2c(c1)NC(=O)c1ccccc1S2(=O)=O [Formulation 5, 11-oxo-N-((2-(trifluoromethyl)thiazol-5-yl)methyl)-10,11-dihydrodibenzo[b,f][1,4]thiazepine-8-carboxamide 5,5-dioxide]",AUC35-210FaSSIF (area under the curve after transfer to FaSSIF from 35 to 210 minutes),[2],5300 min * μgA/mL
same,C210 (drug concentration at 180 minutes after transfer to FaSSIF),[2],27.6 μgA/mL
same,Cmax FaSSIF (maximum drug concentration after transfer to FaSSIF),[2],33.4 μgA/mL
same,AUC35-210FaSSIF (area under the curve after transfer to FaSSIF from 35 to 210 minutes),[2]; [4],5300 min * μgA/mL
same,Cmax FaSSIF (maximum drug concentration after transfer to FaSSIF),[2]; [4],33.4 μgA/mL
"C=C1[C@H](CO)[C@@H](O)C[C@@H]1n1cnc2c(=O)[nH]c(N)nc21 [ETV, entecavir]",HBV DNA mean log10 decline,HBV [3]; Week 12,3.29 log10 IU/mL
same,HBV RNA mean log10 decline,HBV [3]; Week 12,0.44 log10 copies/mL
same,HBV DNA mean log10 decline,HBV [3]; Week 24,3.99 log10 IU/mL
same,HBV RNA mean log10 decline,HBV [3]; Week 24,0.61 log10 copies/mL
